From ChEMBL document CHEMBL1201862, “PubChem BioAssay data set” (2004)
Values belong to the compound of their own block, whether it stands above or below them. Calls of active or inactive are those of the source.

What was measured:
[1] = molecular target: T1, Apoptotic protease-activating factor 1 (Homo sapiens, UniProt O14727); assay type: functional
T1 sequence (O14727 whole entry): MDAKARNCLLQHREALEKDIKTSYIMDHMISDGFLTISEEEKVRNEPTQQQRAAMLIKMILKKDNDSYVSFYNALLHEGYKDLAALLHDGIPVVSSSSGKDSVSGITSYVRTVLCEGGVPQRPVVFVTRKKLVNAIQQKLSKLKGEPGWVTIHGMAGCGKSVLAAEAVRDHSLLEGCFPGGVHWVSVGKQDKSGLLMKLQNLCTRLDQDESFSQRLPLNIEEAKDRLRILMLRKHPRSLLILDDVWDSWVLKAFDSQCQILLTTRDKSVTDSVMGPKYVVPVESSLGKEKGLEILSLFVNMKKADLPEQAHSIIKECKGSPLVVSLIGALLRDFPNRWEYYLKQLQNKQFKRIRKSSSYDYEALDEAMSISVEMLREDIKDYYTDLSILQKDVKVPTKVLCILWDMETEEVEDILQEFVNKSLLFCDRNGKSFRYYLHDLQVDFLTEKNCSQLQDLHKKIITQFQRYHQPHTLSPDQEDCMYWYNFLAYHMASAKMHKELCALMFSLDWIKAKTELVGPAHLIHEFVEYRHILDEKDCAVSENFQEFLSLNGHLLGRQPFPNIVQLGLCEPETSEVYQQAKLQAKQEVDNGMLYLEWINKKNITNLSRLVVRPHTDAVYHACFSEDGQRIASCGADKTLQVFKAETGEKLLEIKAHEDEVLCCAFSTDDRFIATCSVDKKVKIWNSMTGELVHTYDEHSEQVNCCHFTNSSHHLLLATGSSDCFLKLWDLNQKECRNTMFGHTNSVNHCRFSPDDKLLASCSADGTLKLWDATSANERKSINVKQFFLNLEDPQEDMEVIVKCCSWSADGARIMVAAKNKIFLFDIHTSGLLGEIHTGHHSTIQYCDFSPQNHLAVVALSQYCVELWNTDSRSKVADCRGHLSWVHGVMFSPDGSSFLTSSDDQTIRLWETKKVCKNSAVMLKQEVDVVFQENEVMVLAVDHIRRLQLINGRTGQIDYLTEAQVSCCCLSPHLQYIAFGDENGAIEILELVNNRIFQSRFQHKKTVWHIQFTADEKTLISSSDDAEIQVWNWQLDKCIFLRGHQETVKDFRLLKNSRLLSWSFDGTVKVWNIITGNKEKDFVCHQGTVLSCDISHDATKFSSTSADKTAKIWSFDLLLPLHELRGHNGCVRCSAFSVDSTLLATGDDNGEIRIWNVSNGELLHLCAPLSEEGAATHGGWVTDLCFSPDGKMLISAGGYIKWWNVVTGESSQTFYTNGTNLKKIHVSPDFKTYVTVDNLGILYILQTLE

SUMO-activating enzyme [2] = molecular target: T2, SUMO-activating enzyme (Homo sapiens, UniProt Q9UBT2); assay: blockers of SAE1/SAE2–UBC9 SUMO transfer – biochemical, HTRF, uHTS, primary screen (AID 2006); assay type: protein-complex assay
T2 sequence (Q9UBE0 whole entry): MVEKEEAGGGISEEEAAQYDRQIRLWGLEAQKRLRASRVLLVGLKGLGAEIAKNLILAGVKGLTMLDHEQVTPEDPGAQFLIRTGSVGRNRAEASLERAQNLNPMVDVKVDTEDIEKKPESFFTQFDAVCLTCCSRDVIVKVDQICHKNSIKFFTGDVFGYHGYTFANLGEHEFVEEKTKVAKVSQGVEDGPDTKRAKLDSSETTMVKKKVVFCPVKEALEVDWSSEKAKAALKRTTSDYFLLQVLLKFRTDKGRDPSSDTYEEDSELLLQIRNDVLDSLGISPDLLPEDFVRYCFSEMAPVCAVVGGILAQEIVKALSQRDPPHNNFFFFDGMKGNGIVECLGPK
T2 sequence (Q9UBT2 whole entry): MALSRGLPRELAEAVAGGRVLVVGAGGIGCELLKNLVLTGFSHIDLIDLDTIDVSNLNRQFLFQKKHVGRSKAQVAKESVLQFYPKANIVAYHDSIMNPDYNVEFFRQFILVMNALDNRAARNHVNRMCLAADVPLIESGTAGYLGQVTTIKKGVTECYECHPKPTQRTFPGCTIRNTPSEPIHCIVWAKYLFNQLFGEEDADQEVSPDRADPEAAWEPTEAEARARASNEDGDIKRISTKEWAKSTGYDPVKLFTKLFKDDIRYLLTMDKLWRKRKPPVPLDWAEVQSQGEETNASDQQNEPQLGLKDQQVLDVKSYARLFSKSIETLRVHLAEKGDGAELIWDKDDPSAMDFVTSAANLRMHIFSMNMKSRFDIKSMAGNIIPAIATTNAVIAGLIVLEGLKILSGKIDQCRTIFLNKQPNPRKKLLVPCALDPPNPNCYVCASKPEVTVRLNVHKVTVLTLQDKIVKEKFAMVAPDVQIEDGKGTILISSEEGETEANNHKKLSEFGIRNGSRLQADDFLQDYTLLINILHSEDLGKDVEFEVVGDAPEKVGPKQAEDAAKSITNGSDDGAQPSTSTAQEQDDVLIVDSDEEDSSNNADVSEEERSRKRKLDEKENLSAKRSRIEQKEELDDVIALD

SUMO-activating enzyme [3] = molecular target: T2, SUMO-activating enzyme; assay: blockers of UBC9-mediated SUMO conjugation – biochemical, AlphaScreen, SUMOylation inhibitor project, confirmation (AID 2018); assay type: functional
[4] = molecular target: T3, Sentrin-specific protease 8 (Homo sapiens, UniProt Q96LD8); assay: inhibition of human SENP8 cleavage activity – biochemical, luminescence, SAR follow-up (AID 504501); assay type: functional
T3 sequence (Q96LD8 whole entry): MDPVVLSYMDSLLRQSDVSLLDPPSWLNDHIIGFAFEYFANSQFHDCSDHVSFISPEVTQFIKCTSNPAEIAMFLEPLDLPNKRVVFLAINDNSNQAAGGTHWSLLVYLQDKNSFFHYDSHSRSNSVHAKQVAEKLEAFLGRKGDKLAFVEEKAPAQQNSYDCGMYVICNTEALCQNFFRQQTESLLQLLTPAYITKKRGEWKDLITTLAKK

[5] = molecular target: Mitogen-activated protein kinase 8 (Homo sapiens, UniProt P45983); assay type: functional;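 further: value comes from one member of a kinome-wide kinase profiling panel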
[6] = molecular target: Mitogen-activated protein kinase kinase kinase kinase 2 (Homo sapiens, UniProt Q12851); assay type: functional;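 further: measured as one member of a kinome-wide kinase panel, with MAP4K2 as the panel entry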
Mitogen-activated protein kinase kinase kinase kinase 2, sequence (Q12851 whole entry): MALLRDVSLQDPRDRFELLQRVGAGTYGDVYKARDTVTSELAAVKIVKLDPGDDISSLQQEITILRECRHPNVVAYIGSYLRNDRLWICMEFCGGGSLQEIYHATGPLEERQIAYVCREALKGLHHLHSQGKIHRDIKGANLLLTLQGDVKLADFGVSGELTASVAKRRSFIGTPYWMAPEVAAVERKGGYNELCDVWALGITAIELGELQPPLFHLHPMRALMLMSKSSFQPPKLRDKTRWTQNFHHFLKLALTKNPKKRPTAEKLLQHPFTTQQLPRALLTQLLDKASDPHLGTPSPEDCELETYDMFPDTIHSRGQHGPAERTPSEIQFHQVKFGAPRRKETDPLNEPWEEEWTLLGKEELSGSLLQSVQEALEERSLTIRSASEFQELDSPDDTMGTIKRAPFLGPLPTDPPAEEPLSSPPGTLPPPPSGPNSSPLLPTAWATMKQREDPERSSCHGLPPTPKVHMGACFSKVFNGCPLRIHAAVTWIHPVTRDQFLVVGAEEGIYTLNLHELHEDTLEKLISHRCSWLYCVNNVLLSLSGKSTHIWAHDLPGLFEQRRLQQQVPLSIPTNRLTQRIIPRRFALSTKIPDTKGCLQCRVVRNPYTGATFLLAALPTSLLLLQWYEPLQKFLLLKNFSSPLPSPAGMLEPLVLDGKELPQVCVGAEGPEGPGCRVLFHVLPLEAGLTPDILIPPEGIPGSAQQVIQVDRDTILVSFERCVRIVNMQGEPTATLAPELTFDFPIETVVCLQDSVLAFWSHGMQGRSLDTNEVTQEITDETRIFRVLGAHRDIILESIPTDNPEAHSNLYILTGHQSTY

[7] = molecular target: Dual specificity tyrosine-phosphorylation-regulated kinase 1A (Homo sapiens, UniProt Q13627); assay type: functional;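 further: measured against DYRK1A as one member of a broad kinome profiling panel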
[8] = molecular target: Leukocyte tyrosine kinase receptor (Homo sapiens, UniProt P29376); assay: Navigating the Kinome. Panel member name: LTK; assay type: functional
LIM domain kinase 1 = LIM domain kinase 1 (Homo sapiens, UniProt P53667); assay: Navigating the Kinome. Panel member name: LIMK1; assay type: functional
[9] = molecular target: Receptor-type tyrosine-protein kinase FLT3 (Homo sapiens, UniProt P36888); assay type: functional;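 further: FLT3 was tested as one member of a kinome-wide kinase panel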
[10] = molecular target: Platelet-derived growth factor receptor alpha (Homo sapiens, UniProt P16234); assay: Navigating the Kinome. Panel member name: PDGFRA; assay type: functional
[11] = molecular target: Tyrosine-protein kinase BTK (Homo sapiens, UniProt Q06187); assay type: functional
Tyrosine-protein kinase BTK, sequence (Q06187 whole entry): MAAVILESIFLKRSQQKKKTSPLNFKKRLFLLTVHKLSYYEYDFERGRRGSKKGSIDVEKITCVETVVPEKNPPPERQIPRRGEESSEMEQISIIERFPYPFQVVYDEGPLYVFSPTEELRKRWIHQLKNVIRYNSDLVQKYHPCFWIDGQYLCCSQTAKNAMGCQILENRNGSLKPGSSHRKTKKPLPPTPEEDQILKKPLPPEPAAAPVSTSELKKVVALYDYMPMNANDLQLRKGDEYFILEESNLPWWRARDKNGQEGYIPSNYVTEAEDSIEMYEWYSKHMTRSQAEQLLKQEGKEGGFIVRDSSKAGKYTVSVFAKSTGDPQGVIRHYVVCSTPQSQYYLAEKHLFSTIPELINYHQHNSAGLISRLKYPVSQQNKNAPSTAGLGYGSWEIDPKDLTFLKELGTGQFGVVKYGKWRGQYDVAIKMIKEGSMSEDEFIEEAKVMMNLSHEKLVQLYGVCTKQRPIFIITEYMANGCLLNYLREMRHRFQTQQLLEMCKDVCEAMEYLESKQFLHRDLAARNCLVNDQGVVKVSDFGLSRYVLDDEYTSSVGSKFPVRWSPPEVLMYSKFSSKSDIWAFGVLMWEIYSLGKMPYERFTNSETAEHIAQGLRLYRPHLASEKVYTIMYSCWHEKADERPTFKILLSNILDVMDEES

[12] = molecular target: Tyrosine-protein kinase JAK2 (Homo sapiens, UniProt O60674); assay type: functional;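 further: JAK2 tested as one member of a kinase panel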
[13] = molecular target: Mitogen-activated protein kinase kinase kinase kinase 4 (Homo sapiens, UniProt O95819); assay type: functional
[14] = molecular target: Serine/threonine-protein kinase Nek2 (Homo sapiens, UniProt P51955); assay type: functional
Serine/threonine-protein kinase Nek2, sequence (P51955 whole entry): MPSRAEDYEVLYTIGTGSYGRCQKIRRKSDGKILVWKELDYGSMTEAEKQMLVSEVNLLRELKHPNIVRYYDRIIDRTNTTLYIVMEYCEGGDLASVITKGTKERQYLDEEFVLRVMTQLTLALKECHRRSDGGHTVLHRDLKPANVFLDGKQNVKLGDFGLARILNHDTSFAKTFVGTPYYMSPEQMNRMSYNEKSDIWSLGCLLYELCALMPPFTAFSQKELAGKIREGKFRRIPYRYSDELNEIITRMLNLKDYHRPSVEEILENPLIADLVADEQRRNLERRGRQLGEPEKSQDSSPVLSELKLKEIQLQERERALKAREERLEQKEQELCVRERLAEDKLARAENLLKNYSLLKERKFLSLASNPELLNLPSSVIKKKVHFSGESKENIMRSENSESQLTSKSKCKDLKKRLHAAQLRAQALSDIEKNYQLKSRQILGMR

[15] = molecular target: Hepatocyte growth factor receptor (Homo sapiens, UniProt P08581); assay type: functional;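 further: kinase panel profiling across the kinome, with MET as the panel member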
Hepatocyte growth factor receptor, sequence (P08581 whole entry): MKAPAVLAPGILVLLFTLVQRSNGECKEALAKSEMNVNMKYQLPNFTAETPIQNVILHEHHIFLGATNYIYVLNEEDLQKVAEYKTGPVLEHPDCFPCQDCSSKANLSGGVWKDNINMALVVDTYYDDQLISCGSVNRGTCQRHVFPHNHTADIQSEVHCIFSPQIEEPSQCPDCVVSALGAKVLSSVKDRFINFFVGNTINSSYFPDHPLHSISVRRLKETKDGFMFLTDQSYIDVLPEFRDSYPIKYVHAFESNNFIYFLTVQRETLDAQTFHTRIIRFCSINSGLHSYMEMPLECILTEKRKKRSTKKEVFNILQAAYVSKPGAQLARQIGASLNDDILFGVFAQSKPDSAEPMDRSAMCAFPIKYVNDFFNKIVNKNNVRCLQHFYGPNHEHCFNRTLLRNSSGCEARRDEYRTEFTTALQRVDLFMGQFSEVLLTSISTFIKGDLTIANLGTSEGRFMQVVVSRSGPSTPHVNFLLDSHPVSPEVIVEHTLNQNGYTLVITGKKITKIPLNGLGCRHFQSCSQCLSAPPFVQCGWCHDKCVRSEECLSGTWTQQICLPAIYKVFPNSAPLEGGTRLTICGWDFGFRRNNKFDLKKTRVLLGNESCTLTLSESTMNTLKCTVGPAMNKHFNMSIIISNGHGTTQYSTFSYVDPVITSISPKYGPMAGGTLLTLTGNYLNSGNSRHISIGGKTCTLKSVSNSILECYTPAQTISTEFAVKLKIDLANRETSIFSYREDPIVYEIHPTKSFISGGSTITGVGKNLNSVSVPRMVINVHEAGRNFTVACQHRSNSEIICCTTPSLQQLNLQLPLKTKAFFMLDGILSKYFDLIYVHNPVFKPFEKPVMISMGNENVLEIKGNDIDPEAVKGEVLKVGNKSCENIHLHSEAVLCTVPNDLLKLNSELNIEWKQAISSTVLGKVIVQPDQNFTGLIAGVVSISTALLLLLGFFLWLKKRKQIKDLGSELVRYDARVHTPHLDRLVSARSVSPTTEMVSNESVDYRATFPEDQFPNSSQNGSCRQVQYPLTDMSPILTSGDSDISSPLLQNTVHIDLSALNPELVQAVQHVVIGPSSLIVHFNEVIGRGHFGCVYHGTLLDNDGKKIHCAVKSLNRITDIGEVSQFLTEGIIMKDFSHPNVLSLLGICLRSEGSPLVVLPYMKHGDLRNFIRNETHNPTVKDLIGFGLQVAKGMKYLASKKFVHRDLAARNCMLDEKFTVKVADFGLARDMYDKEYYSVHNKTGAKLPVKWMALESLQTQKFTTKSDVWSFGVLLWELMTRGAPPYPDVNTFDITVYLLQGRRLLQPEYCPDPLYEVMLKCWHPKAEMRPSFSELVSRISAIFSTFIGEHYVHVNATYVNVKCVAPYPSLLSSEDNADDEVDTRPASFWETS

[16] = molecular target: Death-associated protein kinase 3 (Homo sapiens, UniProt O43293); assay type: functional;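 further: measured as one member of a kinome-wide profiling panel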
Death-associated protein kinase 3, sequence (O43293 whole entry): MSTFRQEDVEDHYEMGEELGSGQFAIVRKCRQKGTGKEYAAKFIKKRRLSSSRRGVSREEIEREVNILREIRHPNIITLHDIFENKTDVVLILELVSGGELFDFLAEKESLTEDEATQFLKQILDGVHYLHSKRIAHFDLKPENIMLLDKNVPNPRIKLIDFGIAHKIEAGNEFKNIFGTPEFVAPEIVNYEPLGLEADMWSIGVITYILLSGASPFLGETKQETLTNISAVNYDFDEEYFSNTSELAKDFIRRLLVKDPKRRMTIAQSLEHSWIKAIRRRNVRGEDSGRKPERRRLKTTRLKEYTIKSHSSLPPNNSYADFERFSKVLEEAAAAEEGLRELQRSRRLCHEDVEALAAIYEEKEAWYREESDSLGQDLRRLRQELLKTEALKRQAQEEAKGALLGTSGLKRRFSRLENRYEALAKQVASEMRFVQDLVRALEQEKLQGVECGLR

HeLa = assay: viability loss in HeLa cells – cell-based, 24 h, cherry-picked samples, cytotoxicity control, dose response (AID 504726); assay type: functional; details: Homo sapiens;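 further: potency for cytotoxicity as loss of luminescence signal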
[17] = PKA-R1A complex activators, counter-screen titration – biochemical, Cy5-IP20 fluorescence polarization, 1536-well, triplicate, counter-screen for PKA-R2B activator project, dose response (AID 504896)

IC50 [1]: 11.9 µM (active)
IC50 (SUMO-activating enzyme [2]): 5.63 µM (active)
IC50 (SUMO-activating enzyme [3]): 1.82 µM (active)
SMILES: O=C(NNc1cc(N2CCCC2)nc(N2CCCC2)n1)c1ccc([N+](=O)[O-])cc1
IC50 [4]: 3.37 µM (active)

Ki [5]: 1 µM (active)
Ki [6]: 2 µM (active)
Ki [7]: 0.501 µM (active)
Ki [8]: 1 µM (active)
Ki (LIM domain kinase 1): 0.158 µM (active)
Ki [9]: > 3.16 µM (inactive)
Ki [10]: 1.58 µM (active)
Ki [11]: 3.16 µM (active)
Ki [12]: > 2.51 µM (inactive)
Ki [13]: > 5.01 µM (inactive)
Ki [14]: 1 µM (active)
Ki [15]: 0.316 µM (active)
SMILES: O=C(Cc1cccs1)Nc1nc2ccccc2s1
Ki [16]: 5.01 µM (active)

SMILES: O=S(=O)(O)c1cccc2c(N=Nc3ccc(O)c4ncccc34)cccc12
AC50 (HeLa): 206 µM (active)
EC50 [17]: > 114 µM (inactive)
